A short description of series [1]: Plasma glucose, insulin and intact GLP-1 after 50 g OGTT, T2DM subjects. It counts as in vivo, human. Conditions: for median baseline adjusted AUC(0–4) for plasma GLP-1 following an OGTT: placebo 6.36. The procedure:
All subjects were admitted to the unit two nights prior to receiving study drug to establish baseline safety parameters and fluid intake levels over a 36 h period. Subjects remained in the unit for at least 24 h after doses were administered for monitoring of clinical laboratory parameters exploratory biomarkers, vital signs, ECGs and adverse events. While confined to the clinical research unit, all subjects received meals standardized with respect to calories, fat, protein, carbohydrate, and sodium content; however, detailed dietary information was not captured in this study. In Part A, subjects were dosed following an overnight fast; lunch and dinner were provided at 4 and 10 h after dosing, respectively. Fifteen minutes after dosing in each treatment period in Part B, a fasting OGTT was performed using 50 g glucose (administered as 50 g Glucola™). A 50 g glucose load was chosen since the OGTT was being performed in subjects already known to have diabetes. The glucose drink was consumed by subjects within approximately 5 minutes. Blood samples for the measurement of glucose, insulin, and intact glucagon-like peptide 1 (GLP-1) were collected for 24 hours following dose administration. Provided that there were no safety or tolerability concerns, subjects were released from the clinic on day 2 of each treatment period until their return for the next treatment or follow-up period. Each subject was involved in the study for approximately 8 weeks (from screening to follow-up).
Blood samples for glucose were taken at 0 (pre-dose), and 1, 2, 4, 8 and 12 h after dosing in each treatment period (Part A). For Part B, blood samples for glucose, insulin and GLP-1 were taken at check-in on day -2, and at 0 h (pre-dose), and 0.5, 1, 1.5, 2, 4 h (prior to lunch), 4.5, 5, 6, 8, 10, 12 and 24 h after dosing on day 1 of each treatment period.
For glucose, plasma was analyzed using a YSI 2300 Glucose Analyzer (Yellow Springs International Life Sciences, Yellow Springs, OH, USA). For insulin, plasma was rapidly prepared and frozen at -70°C until analyzed by LabCorp (San Diego, CA, USA) using a chemiluminescent immunometric assay method (Siemen’s Immulite 2000 analyzer with Immulite Insulin Kit L2KIN2).
For assay of intact GLP-1, blood was collected into a chilled EDTA tube and protease inhibitors (DPP4 inhibitor obtained from EMD Millipore, St. Charles, MO) were immediately added. Samples were then spun down and plasma split into two separate tubes and frozen at -70°C until analyzed by Pathway Diagnostics (Malibu, CA, USA) by ELISA (kit # EGLP-35 K, EMD Millipore). The lowest level of intact GLP-1 this assay can detect is 2 pM (with a minimum plasma sample size of 0.4 mL).

Series [2] can be described thus: Plasma pharmacokinetics, T2DM subjects. In kind it is in vivo, human. To be noted: human, plasma analyte; for AUC(0-inf): read-out: AUC(0–∞) Geometric mean (CV%); for Cmax: read-out: Cmax Geometric mean (CV%); for Tmax: read-out: Tmax Median; for half-life: read-out: T½ Geometric mean (CV%) (converted). The procedure:
Six subjects with T2DM received two doses of remogliflozin etabonate and a placebo dose, in a randomized, dose escalating, crossover design, along with an oral glucose load on three study sessions separated by 7–14 days. Full PK and safety profiles were measured on Day 1 of each dosing period. The doses selected for this portion of the study, 50 mg and 500 mg, were based on data obtained in Part A. In each dosing period, subjects were assigned to active vs placebo in a 2:1 ratio. On each dosing day, a series of 2.0 mL blood samples were collected at pre-dose and 10, 20, 30 and 45 min, and 1, 1.25, 1.5, 2, 2.5, 3, 4, 6, 8, 12, 16, and 24 h post-dose for the determination of remogliflozin etabonate, remogliflozin and GSK279782 in plasma by using high-performance liquid chromatography with tandem mass spectrometry (MS/MS) as described. Non-compartmental PK analysis of plasma concentration–time data was performed using WinNonlin Version 4.1 (Pharsight Corporation, Mountainview, CA, USA). The Cmax and Tmax were obtained directly from the data. Areas under the plasma concentration–time curves from time zero to the last quantifiable time point (AUC[0–last]) and extrapolated to infinity (AUC[0–∞]) were calculated using the log-linear trapezoidal method. The terminal plasma elimination rate-constant (λz) was estimated from log-linear regression analysis of the terminal phase of the plasma concentration–time curve, and the T½ was calculated as T½ = ln2/λz. Ratios of AUC(0–∞) remogliflozin to AUC(0–last) remogliflozin etabonate were calculated including molecular weight corrections.

The mark [3] stands for this setting: remogliflozin etabonate 50 mg oral dose.
Setting [4] is: remogliflozin etabonate 500 mg oral dose (prodrug n = 2).
[5] abbreviates: remogliflozin etabonate 500 mg oral dose.

This note sets out measurements from publication PMC3700763, “First human dose-escalation study with remogliflozin etabonate, a selective inhibitor of the sodium-glucose transporter 2 (SGLT2), in healthy subjects and in subjects with type 2 diabetes mellitus” (BMC Pharmacology & Toxicology, 2013).

Like-named read-outs stand apart in the source and are kept apart here.

On to `CCOC(=O)OC[C@H]1O[C@@H](Oc2nn(C(C)C)c(C)c2Cc2ccc(OC(C)C)cc2)[C@H](O)[C@@H](O)[C@@H]1O` [Remogliflozin etabonate, remogliflozin etabonate], for which the “Increases in plasma glucose following an OGTT” value in series [1] (50 mg RE vs placebo, altered little from 50 mg to 500 mg) is “clearly attenuated”. Moreover, the “median baseline adjusted AUC(0–4) for plasma GLP-1 following an OGTT” value in series [1] (50 mg) is -8.85 pM·h. Also, the “median baseline adjusted AUC(0–4) for plasma GLP-1 following an OGTT” value in series [1] (500 mg) is -1.95 pM·h. The “Plasma insulin following the glucose load” value in series [1] (50 and 500 mg) is listed as “no clear trends”. Further, in series [2] (setting [3]), the AUC(0-inf) was determined as 8.91 ng·h/mL; the Cmax (commonly the highest concentration seen after dosing) was determined as 9.56 ng/mL; the Tmax (as a rule, the time at which the peak concentration occurs) stood at 34.8 min; the half-life is 36.6 min. In series [2] (setting [4]), the AUC(0-inf) is 91.9 ng·h/mL and the half-life is 49.2 min. Further, in series [2] (setting [5]), the Cmax turned out to be 83.9 ng/mL and the Tmax was 45 min.
